The subject of series [1] is gastric secretory function. The experiment in a line: Gastric secretory function, chronic or acute tests. In kind it is in vivo. To be noted: dogs or rats.
The subject of series [2] is cryogenic ulcer of the gastric mucosa. The experiment in a line: Cryogenic gastric ulcer in rats. In kind it is in vivo. To be noted: healing effect over the course of 14 days; twice daily, oral. The protocol: (§1) The models used gastric ulcers induced by
c) Ulcer created by local wounding with a cryogenic probe using a method similar to that described above for mouth ulcers.
(§2) The compounds were administered intraperitoneally at a dose of 20 mg/kg; in the cryogenic ulcer model compound 2 was administered either intraperitoneally (10 mg/kg) or orally (20 mg/kg twice daily, ie. a total of 40 mg/kg/day) and was compared to orally-administered gastrocepin (1 mg/kg twice daily, ie. a total of 2 mg/kg/day).

Series [3] relates to lesions of the gastric mucosa. The experiment in a line: Gastric lesions induced by immobilization and hypothermia. Format: in vivo, rats. Also on record: % reduction of degree of ulceration / % reduction of ulcerated area: concentration or dose not given beside the values. To be noted: Protective effect, 30 minutes before the test. Here is the method:
as §1
b) Immobilization and hypothermia (induced by water cooling);
as §2

Series [4] has as its system white male mice.
Method: The acute toxicity of 1,3-dialkyl-4,5-bis (N-methylcarbamoyl)imidazolium salts was assessed following intraperitoneal injection into 200 white male mice weighing 18 to 20 g. Dead animals were counted daily after the administration of the test substance.
Series [5] relates to acute Con A-induced inflammation. The experiment in a line: Acute Con A-induced inflammation (paw oedema) in mice. In kind it is in vivo. The settings on record: Table 3, male CBA mice. The protocol: Saline solution was similarly administered to the control animals. There were 10 mice in each group. After one hour, con A at a dose of 100 mkg/20 g of body weight was administered by sub-plantar injection into the plantar aponeurosis of the left paws of mice of both the experimental and control groups. The same amount of saline splution was injected into the contralateral paws. After one hour, the mice were killed and the experimental and control paws were weighed to assess the reaction index of the inflammation in the ankle-joint (Liubimov et al, 1999).
The anti-inflammatory effect of Compound 2 and Compound 7 was compared in male mice weighing 18-22 g, using the model described in Example 9. The ED50, i.e. the dose reducing paw ooedema by 50% one hour after injection of Concanavalin A, was calculated.

Series [6] has as its system lesions of the gastric mucosa. The experiment in a line: Gastric lesions induced by electrostimulation of immobilised rats. Format: in vivo. The protocol:
as §1
a) Electrostimulation of immobilised rats for 3 hours;
as §2

Series [7] deals with liver after partial hepatectomy. The experiment in a line: Morphological study of the liver after partial hepatectomy. In kind it is in vivo, rats. The settings on record: 0.2 MM/kg; one week after hepatectomy. Here is the method: Morphological methods are highly informative in the assessment of repair processes. Histological tests of the liver after partial hepatectomy were performed using generally accepted methods. Microscopic sections were stained with hematoxylin and eosin using Van Gieson's methodology. Liver tests after partial hepatectomy were performed on 8 groups of animals, totalling 37 rats. All animals were examined one week after hepatectomy.

The subject of series [8] is regeneration of liver after partial hepatectomy. The experiment in a line: Liver regeneration after partial hepatectomy in rats. In kind it is in vivo. To be noted: for Catalase E activity / DNA content (in mg/g of tissue) / Protein content / RNA content (mg/g of tissue) / SOD activity: 0.2 mM/kg; for Level of recovery: 0.2 mM/kg intraperitoneally, 7 days, hepatectomy alone = 100. Here is the method: Partial hepatectomy was performed using the conventional method (Higgins and Anderson, 1931) by removing the left lateral and central lobes of the liver from 80 male white rats, weighing 180-200 g.
Compound 2, Compound 4, Compound 5 or Compound 6 was administered to the experimental groups intraperitoneally in equimolar doses of 0.1 mM/kg and 0.2 mM/kg. These optimal doses were determined in preliminary experiments. The control group received intraperitoneal injections of saline solution. The compounds were administered on the day after the operation and then one injection was given daily over the course of 7 days, since maximum growth of the liver mass in rats is observed in the first 7 days after partial hepatectomy (Solopaev, 1980).
The effectiveness of the compounds was compared to that of a combination of non-steroid anabolic regeneration stimulators which are used in the treatment of liver pathology, namely Riboxin and potassium orotate at a dose of 0.2 mM/kg each (Rychnev and Frolov, 1984).
For quantitative evaluation of the regeneration process in the liver the coefficient of regeneration completion as determined by the formula below was used: [formula] where
Stimulation of the regeneration of tissue after hepatectomy in response to different medicinal preparations is associated with an increase in the synthesis of nucleic acids, as indicated by the increase in the content of RNA and DNA in the regenerated tissue. Quantitative analysis of DNA and RNA was performed by centrifugation. […] The enzymic component of anti-oxidant protection was also assessed on the basis of the activity of catalase and superoxidedismutase (SOD).
5 ml of […] of HCIO4 solution were added to the sample (100 mg). In order to ensure complete sedimentation of the acid-insoluble fraction, the beakers were put in ice for 15 minutes. Then they were centrifuged for 10 minutes at 5000 revolutions per minute. The sediment was washed twice with 0.2 M HCIO4. After the final centrifugation, the walls of the beaker were carefully dried with gauze and filter paper. The sediment was ground down with a glass pestle, suspended in 1 ml of water and then 1 ml of 0.6 M KON solution was added at room temperature. Hydrolysis was performed over the course of 1 hour at 37° C., then the beakers were put in ice to stop the hydrolysis process. 4 ml of the 0.6 M solution were added to each beaker and the beakers were left in ice for another 15 minutes, then centrifuged for 15 minutes at 5000 revolutions per minute. The supernatant was used to determine the RNA by UV absorption at 260 nm and 290 nm compared to the control sample containing 0.4M of HCIO4). The amount of RNA in μg per 1 ml of the supernatant was calculated using the following formula: [formula] where C=is the RNA concentration (μg/ml)
DNA analysis was carried out on the sediment remaining after the alkaline hydrolysis used to determine RNA. 0.5 M of HCIO4 (5 ml per sample) was poured into the dried beaker containing the sediment. Hydrolysis was performed in a boiling water bath for 20 minutes. The amount of DNA in μg per 1 ml of the hydrolysate was calculated using the following formula: [formula] where C=is the DNA concentration (μg/ml). Catalase Activity
Catalase activity was determined using the permanganate method. The optimal amount of the substrate (3 ml of 1% H2O2) and 1 ml of the enzyme were added to 10 ml of phosphate buffer, pH 7.8. After 10 minutes the reaction was stopped by adding 1.5 ml of H2SO4 (50%). The remaining hydrogen peroxide was filtered with 0.1M of KMnO4 solution. Catalase activity was calculated on the basis that 1 ml of 0.1M of KMnO4 solution corresponds to […] of H2O2.
SOD activity was determined using the dianisidine method, which is based on the fact that under ultraviolet irradiation Riboflavin (Rb) is converted to an excited (ionised) state and therefore becomes able to attack reduced dianisidine (DH2). […]

In series [9] the test system is cryogenic injuries of the sigmoid colon. The experiment in a line: Cryogenic damage of the colon, model of ulcerative colitis. Format: in vivo, rats. The settings on record: oral. Here is the method: A model of cryogenic damage of the colon was used in this experiment to simulate ulcerative colitis. Cryogenic injuries of the sigmoid colon of rats were induced by pressing a metal rod of […] in diameter cooled in liquid nitrogen to the serous membrane of the colon for 10 seconds under ether anaesthesia.
Tests were performed on 67 male rats weighing 180-200 g, with 8 animals in each group. Animals were kept in separate cages, with normal food and water ad libitum. The test compounds were administered orally on the second day after the operation, and then daily until healing was complete. Compound 2 or Compound 6 was administered to test animals at a dose of 20-50 mg/kg. The following agents were used for comparison:
The nature of the healing of the ulcer injury was examined morphologically on days 1, 3 and 7. […] The inflammatory process extends beyond the injured area into the adjacent areas, and beyond the peritoneum into fatty connective tissue.

Series [10] relates to experimental granuloma. The experiment in a line: Cotton-wool granuloma (chronic proliferative inflammation) in rats. Format: in vivo. Here is the method:
We investigated the ability of compound (2) to reduce the formation of granulation tissue in the inflammatory focus which develops at the site at which a non-sterile cotton-wool roll weighing 40 mg is implanted subcutaneously (Swingle and Shideman, 1972). Compound (2) was administered orally to male rats weighing 130-150 g at a dose of 100 mg/kg for 6 days before the cotton-wool roll was implanted, and then for 6 days at the same dose while the granuloma developed. Anti-inflammatory agents, such as ibuprofen and butadione, were used for comparison, using the same procedure. There were 10 rats in each group.
After 12 days the experiment was terminated, and the granulomas were excised, weighed, and the wet weight of the granulation tissue was measured. The dry mass of the granuloma was measured after drying for 24 hours at 70° C., and the exudative and proliferative stages of the granulomas were calculated. Statistical analysis was performed using the Student's parametric test.

For series [11] the following is noted: oral dose used for the comparative medication; cited from earlier work.
The test system of series [12] is carrageenin-induced inflammation. The experiment in a line: Carrageenin-induced inflammation in intact and adrenalectomized rats. Format: in vivo. Here is the method:
An acute inflammatory oedema was induced in intact and adrenalectomized male rats weighing 180-200 g by sub-plantar injection of 0.1 ml of 1% carrageenin solution into the left paw (Winter et al., 1962). The same volume of saline solution was injected into the contralateral paw. […] There were 10 rats in each group.
The degree of carrageenin-induced inflammation of the ankle joints was assessed at 3 hours after the induction of the inflammation, on the basis of the change in weight of the experimental and control paws (reaction index).

The mark [13] stands for this setting: 50 mg/kg intra-peritoneally one hour before Con A.
The mark [14] stands for this setting: Healing effect over the course of 3 days.
The mark [15] stands for this setting: Protective effect, 30 minutes before the test.
Where [16] appears, read: Adrenalectomized animals, 48 mg/kg orally 4 days + carrageenin.

Where two headings read alike, the source gives them in different places.

The term LD50 denotes the dose at which mortality reaches 50%. As to “1,3-diethyl-4,5-bis(N-methylcarbamoyl)-imidazolium benzenesulfonate [Compound 3]”, in [1], the “effect on gastric secretory function” value is recorded as “did not affect gastric secretory function”. In addition, the “% reduction of degree of ulceration” value is on record as 59% in series [2], 41% in series [3], 26.5% in series [6] (setting [14]) and 50% in series [6] (setting [15]). Further, the “Average number of lesions per animal” value in series [2] is recorded as 7.7 ± 2.5; in series [3] (20 mg/kg intraperitoneally), 6.8 ± 1.4; in [6] (setting [14]), 2.5 ± 0.4; in [6] (Protective effect, 30 minutes before the test, 20 mg/kg intraperitoneally) it was 3.5 ± 0.4. Also, the “% reduction of ulcerated area” value in series [3] was found to be 41%; in series [6] (setting [15]), 54%. Also, the Area of lesion was determined as 7.2 ± 2.0 in series [3] and 7.1 ± 4.1 in series [6] (setting [15]). Further, the LD50 result in [4] is given as “over 500 mg/kg”; in [4] (intraperitoneal injection, white male mice, 14 days observation), 1292 mg/kg. Also, the toxicity entry in [4] was “very low toxicity”. The “Reaction index (%)” value in series [5] (10 mg/kg intra-peritoneally one hour before Con A) was found to be 9.5 ± 2.5 %; in series [5] (setting [13]) it was 9.5 ± 2.0 %.

For the compound “1-methyl-3-ethyl-4,5-bis(N-methylcarbamoyl)-imidazolium salicylate [Compound 6]”, in [7], the “histological findings in the liver” value is “showed no undesirable effects”. Also, in series [8], the “Catalase E activity” value was determined as 20.0 ± 2.7 μgM/min/g tissue × 1000, the “DNA content (in mg/g of tissue)” value is given as 3.88 ± 0.17 mg/g of tissue, the Protein content amounted to 93.0 ± 14.0 Mg/g tissue and the “RNA content (mg/g of tissue)” value is given as 7.41 ± 0.16 mg/g of tissue. Besides, in series [8], the SOD activity was determined as 100.0 ± 4.7 Units/g tissue and the Level of recovery is on record as 105.0. Besides, the “indicators of healing relative to Compound 2” value in [9] is “less pronounced”.

`CCCCC1C(=O)N(c2ccccc2)N(c2ccccc2)C1=O` [Butadione]: in series [10] (60 mg/kg), the “Granuloma weight (mg) Dry weight” value is listed as 145.4 ± 7.45 mg, the “Granuloma weight (mg) Exudative stage” value is given as 682.6 mg, the “Granuloma weight (mg) Fresh weight” value worked out at 828.0 ± 76.68 mg and the “Granuloma weight (mg) Proliferative stages” value was determined as 105.4 mg. In addition, in series [11], the “ED50 values from the literature” value was 60 mg/kg.

For `CC[n+]1cn(C)c(C(=O)NC)c1C(=O)NC.O=C([O-])c1ccccc1` [Compound 5, 1-methyl-3-ethyl-4,5-bis(N-methylcarbamoyl)-imidazolium benzoate], the “histological findings in the liver” value in [7] is given as “some of the animals demonstrated hepatocyte hypertrophy combined with subacute hepatitis”. In [8], the “Catalase E activity” value came out at 17.3 ± 2.6 μgM/min/g tissue × 1000, the “DNA content (in mg/g of tissue)” value is 3.76 ± 0.29 mg/g of tissue, the Protein content is listed as 86.8 ± 6.9 Mg/g tissue and the “RNA content (mg/g of tissue)” value is listed as 7.46 ± 0.14 mg/g of tissue. Moreover, in series [8], the SOD activity stood at 103.0 ± 4.4 Units/g tissue and the Level of recovery is recorded as 120.3. Moreover, the “Reaction index (%)” value in series [5] (setting [13]) was 7.2 ± 1.8 %.

Take `CC(C)Cc1ccc(C(C)C(=O)O)cc1` (stereo not drawn) [Ibuprofen, ibuprofen]: in [10] (48 mg/kg), the “Granuloma weight (mg) Dry weight” value is reported as 143.2 ± 9.83 mg, the “Granuloma weight (mg) Exudative stage” value is 670.8 mg, the “Granuloma weight (mg) Fresh weight” value was 814.0 ± 63.72 mg and the “Granuloma weight (mg) Proliferative stages” value amounted to 103.2 mg. For the same compound, in series [12] (48 mg/kg 4 days + carrageenin), the “Inhibition of oedema(%)” value amounted to 63.39% and the “Reaction index (%)” value stood at 15.88 ± 1.88 %. Besides, in series [12] (setting [16]), the “Inhibition of oedema(%)” value stood at 57.90% and the “Reaction index (%)” value amounted to 18.12 ± 1.82 %. In addition, the “ED50 values from the literature” value in series [11] is reported as 48 mg/kg.

(Values after patent US20060135587A1, “Method and compounds for promoting healing and reducing inflammation” (priority 2002, published 2006).)
